This is an account of results in PubChem BioAssay AID520 (NMMLSC, 2006).

SMILES strings stand for the structures. pKi: −log10 of the molar value. Calls of active or inactive are those of the source. No rule for the calls is given here.

The test concerns the target N-formyl peptide receptor 2 (Homo sapiens) (UniProt P25090). Kind of test: concentration-dependent FPRL1 ligand displacement – cell-based, FPR counter-screen, fluorescent ligand, dose response (AID 520). Conditions: FPRL1-expressing cells, fluorescent ligand binding inhibition; for pKi: measured here: FPRL1 binding Ki. (In general: A counterscreen serves to expose hits that act by an unwanted route or on another target.)

In general, IC50 refers to the concentration needed to halve the response being measured. As usually defined, the pKi is the Ki on a negative log10 scale, so that one unit is a factor of ten.

N-formyl peptide receptor 2 (Homo sapiens), sequence (P25090 whole entry, looked up): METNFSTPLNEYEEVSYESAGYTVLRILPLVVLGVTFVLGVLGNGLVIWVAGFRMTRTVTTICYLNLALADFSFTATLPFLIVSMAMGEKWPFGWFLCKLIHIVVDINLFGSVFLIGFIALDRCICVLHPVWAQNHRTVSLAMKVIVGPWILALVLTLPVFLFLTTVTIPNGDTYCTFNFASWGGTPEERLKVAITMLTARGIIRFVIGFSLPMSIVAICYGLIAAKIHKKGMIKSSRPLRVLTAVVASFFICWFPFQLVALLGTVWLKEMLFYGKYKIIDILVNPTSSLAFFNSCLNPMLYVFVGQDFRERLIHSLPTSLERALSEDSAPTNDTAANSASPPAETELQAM

Take `COC(=O)Cc1[nH]nc2c1C(C1C=CCCC1)C(C#N)=C(N)O2` (stereo not given): the IC50 was > 66.7 µM (inactive) and the negative-log Ki (pKi) was less than 4.39.
Turning to `Clc1ccc(Cc2nn3c(-c4ccncc4)nnc3s2)cc1`, the pKi is less than 4.39.
Take `Cc1ccc(C2/C(=C(/O)c3ccc(Cl)cc3)C(=O)C(=O)N2CC2CCCO2)o1` (stereo not given): the IC50 was > 66.7 µM (inactive) and the pKi was less than 4.39.
`CCOC(=O)c1ccc(NC(=O)Nc2ccc3c4c(cccc24)C(=O)N3CC)cc1` gave a negative-log Ki (pKi) of less than 4.39.
`COc1cc(C2C(C(=O)c3ccco3)=C(O)C(=O)N2CCc2ccccc2)ccc1O` (stereo not given): the IC50 is > 66.7 µM (inactive) and the negative-log Ki (pKi) is less than 4.39.
The matching figures for `COc1cccc(/C(O)=C2/C(=O)C(=O)N(Cc3cccnc3)C2c2ccco2)c1` (stereo not given): > 66.7 µM (inactive) and less than 4.39.
As to `COCCCN1C(=O)C(O)=C(C(=O)c2ccco2)C1c1cccc(Br)c1` (stereo not given), the IC50 is > 66.7 µM (inactive) and the negative-log Ki (pKi) is less than 4.39.
The matching figures for `CCOc1ccc(/C(O)=C2/C(=O)C(=O)N(CC3CCCO3)C2c2ccco2)cc1` (stereo not given): > 66.7 µM (inactive) and less than 4.39.
For the compound `COc1cc(C2C(C(=O)c3ccco3)=C(O)C(=O)N2c2cc(C)on2)cc(Br)c1O` (stereo not given), the IC50 was > 66.7 µM (inactive) and the pKi was less than 4.39.
`CCCC(=O)Nc1c2c(nn1-c1ccc(OC)cc1)CS(=O)C2` (stereo not given): the negative logarithm of the Ki (pKi) is less than 4.39.
Same read-out and setting: next, `Cc1c(C)c2cc(Cl)c(O)c(CN3CCCCC3)c2oc1=O`: less than 4.39.
As for `COc1ccc(OC)c(C2C(C(=O)c3ccco3)=C(O)C(=O)N2CCCN2CCOCC2)c1` (stereo not given), the IC50 was > 66.7 µM (inactive) and the pKi was less than 4.39.
Take `CNc1nn(-c2cccc(Cl)c2)nc1N`: the negative-log Ki (pKi) is 4.96.
In the case of `C=CCOc1ccc(C2C(C(=O)c3cccs3)=C(O)C(=O)N2c2nnc(C)s2)cc1` (stereo not given), the IC50 is > 66.7 µM (inactive) and the pKi was less than 4.39.
Consider `Cc1ccc(C)c(/C(O)=C2\C(=O)C(=O)N(CCCn3ccnc3)C2c2ccncc2)c1` (stereo not given), for which the IC50 was > 66.7 µM (inactive) and the pKi is less than 4.39.
Consider `CCOC(=O)Nc1ccc(OC)cc1S(=O)(=O)N1CCCCC1`, for which the negative logarithm of the Ki (pKi) was less than 4.39.
For the compound `CCCOc1ccc(C2C(C(=O)c3ccc(C)o3)=C(O)C(=O)N2CCCn2ccnc2)cc1` (stereo not given), the IC50 is > 66.7 µM (inactive) and the negative logarithm of the Ki (pKi) is less than 4.39.
As for `O=C(C1=C(O)C(=O)N(CC2CCCO2)C1c1cccnc1)c1ccco1` (stereo not given), the IC50 was > 66.7 µM (inactive) and the negative-log Ki (pKi) was less than 4.39.
On the same counts, the results for `COCCCN1C(=O)C(O)=C(C(=O)c2ccco2)C1c1ccc(Br)cc1` (stereo not given) are > 66.7 µM (inactive) and less than 4.39.
`C=CCn1c(NC(=O)c2ccccc2)c(C#N)c2nc3ccccc3nc21` gave a negative logarithm of the Ki (pKi) of less than 4.39.
In the case of `COC(=O)C1(S(=O)(=O)c2cccc3nsnc23)CC1`, the pKi is less than 4.39.
For `CC1=C(C#N)C(c2ccc3ncccc3c2)C(C#N)=C(C)N1`, the IC50 was > 66.7 µM (inactive) and the pKi is less than 4.39.
On to `O=c1cc(N2CCc3ccccc32)[nH]c(=O)n1Cc1ccc(F)cc1`, for which the pKi was less than 4.39.
The same measure, in the same setting: next, `Cc1ccc(NC(=O)c2oc3ccc(S(=O)(=O)N4CCOCC4)cc3c2C)cc1C`: less than 4.39; `CC(=O)SCC(=O)N=c1sc2cc(F)ccc2n1C`: less than 4.39.
For `COc1cc(C2C(C(=O)c3ccc(C)o3)=C(O)C(=O)N2Cc2cccnc2)ccc1O` (stereo not given), the IC50 was > 66.7 µM (inactive) and the pKi is less than 4.39.
Regarding `COc1ccc(C2/C(=C(/O)c3ccccc3)C(=O)C(=O)N2CC(C)O)c(OC)c1` (stereo not given), the IC50 is > 66.7 µM (inactive) and the negative-log Ki (pKi) is less than 4.39.
On the same counts, the results for `COc1ccc(/C(O)=C2/C(=O)C(=O)N(CCN3CCOCC3)C2c2ccc(C)cc2)cc1` (stereo not given) are > 66.7 µM (inactive) and less than 4.39.
With `CCc1cc2c(=O)c(-c3nc4ccccc4n3C)c(COCC(=O)O)oc2cc1OC(=O)C(C)(C)C`, the pKi was less than 4.39.
Still for that read-out and setting: next, `O=C(c1ccc(Cl)cc1)N(Cc1cccs1)C1CCS(=O)(=O)C1` (stereo not given): less than 4.39; `CCOC(=O)CCn1nc(-c2ccc(Cl)cc2)cc1N`: less than 4.39.
`CC(C)OC(=O)c1cc(NC(=O)C2C3CCC(O3)C2C(=O)O)cc(C(=O)OC(C)C)c1` (stereo not given) showed a pKi of less than 4.39.
As to `COc1ccc(OC)c(C2C(C(=O)c3cccs3)=C(O)C(=O)N2c2cc(C)on2)c1` (stereo not given), the IC50 is > 66.7 µM (inactive) and the pKi was less than 4.39.
Turning to `Cc1ccccc1Nc1cc2ccccc2c(=O)[nH]1`, the pKi was less than 4.39.
The same measure, in the same setting: in the case of `O=C(NCc1cccnc1)C1c2ccccc2C(=O)N1C1CCCCCCC1` (stereo not given) it was less than 4.39.
As to `O=C(C1=C(O)C(=O)N(CCN2CCOCC2)C1c1ccccc1)c1cccs1` (stereo not given), the IC50 was > 66.7 µM (inactive) and the pKi is less than 4.39.
As for `COc1ccc(NC(=O)C2C(=O)NC3(C)CC2c2ccccc2O3)cc1` (stereo not given), the pKi was less than 4.39.
Take `Cc1ccc(Nc2ccc(C(=O)O)cc2N)cc1`: the pKi is less than 4.39.
Regarding `Cc1ccc(C2/C(=C(/O)c3cnn(-c4ccccc4)c3C)C(=O)C(=O)N2CCN2CCOCC2)o1` (stereo not given), the IC50 was > 66.7 µM (inactive) and the pKi was less than 4.39.
`O=c1cc(-c2ccccc2)nc(N2CCN(Cc3ccccc3)CC2)[nH]1` showed a pKi of less than 4.39.
In the case of `CCCNC(=O)CS(=O)(=O)Cc1nc(-c2cccc(OC)c2)oc1C`, the negative-log Ki (pKi) is less than 4.39.
On to `Cc1ccc(C2C3=C(CC(C)(C)CC3=O)Nc3[nH]c(=S)[nH]c(=O)c32)cc1` (stereo not given), for which the IC50 was > 66.7 µM (inactive) and the pKi is less than 4.39.
Turning to `Cc1sc(NC(=O)C2CCCCC2C(=O)O)c(C(N)=O)c1-c1ccc(C(C)(C)C)cc1` (stereo not given), the negative logarithm of the Ki (pKi) was less than 4.39.
Turning to `COc1cccc(C2/C(=C(\O)c3ccc(OC)c(OC)c3)C(=O)C(=O)N2c2cc(C)on2)c1` (stereo not given), the IC50 was > 66.7 µM (inactive) and the negative logarithm of the Ki (pKi) is less than 4.39.
Turning to `O=C(NC1CCCCC1)c1sc(=S)n2c1[nH]c(=O)c1ccccc12`, the pKi is less than 4.39.
`Cc1cc(NC(=O)CSc2nnc(Cn3c(=O)sc4ccccc43)n2-c2ccccc2C)no1` had a negative logarithm of the Ki (pKi) of less than 4.39.
`Cc1ccc(C)c(-n2c(CNC(=O)c3ccco3)nnc2SCC(=O)N2CCc3ccccc32)c1` had a pKi of less than 4.39.
In the case of `Cc1ccc(/C(O)=C2\C(=O)C(=O)N(c3cc(C)on3)C2c2cccc(Br)c2)cc1` (stereo not given), the IC50 is > 66.7 µM (inactive) and the pKi is less than 4.39.
`Cc1ccc(NC(=O)C2C(=O)N(CCO)C3(C)CC2c2ccccc2O3)cc1` (stereo not given) gave a negative logarithm of the Ki (pKi) of less than 4.39.
On the same count and under the same terms, next, `COc1ccc2ccccc2c1C1CC(=O)N2CN(C3CCCCC3)CSC2=C1C#N` (stereo not given): less than 4.39.
Consider `Cc1c(CNCc2cccs2)c(C(=O)O)c(C)n1Cc1ccccc1`, for which the pKi is less than 4.39.
Turning to `COCCN1C(=O)C(O)=C(C(=O)c2ccco2)C1c1cccc(Oc2ccccc2)c1` (stereo not given), the IC50 was > 66.7 µM (inactive) and the pKi was less than 4.39.
As for `COc1ccc(C)cc1NC(=O)C1CCCCC1C(=O)O` (stereo not given), the negative-log Ki (pKi) was less than 4.39.
In the case of `COCc1cc(C2C(C(=O)c3ccco3)=C(O)C(=O)N2CCOCCO)ccc1O` (stereo not given), the IC50 was > 66.7 µM (inactive) and the negative logarithm of the Ki (pKi) is less than 4.39.
`CCc1nnc(NC(=O)CSc2nnc(-c3cc4ccccc4cc3O)n2CC)s1` gave a negative-log Ki (pKi) of less than 4.39.
`Nc1ccc(Nc2ccccc2)cc1`: the negative logarithm of the Ki (pKi) was less than 4.39.
Same read-out and setting: next, `CCC(CCC(=O)Nc1cccc(C(=O)O)c1)C(=O)O` (stereo not given): less than 4.39; `CCOC(=O)N1CCC(NC(=O)c2cc(C(=O)Nc3ccc(OC)c(OC)c3)ccc2CO)CC1`: less than 4.39.
In the case of `C=CCN1C(=O)C2(/C(=C(\O)c3ccc4c(c3)OCCO4)C(=O)C(=O)N2CCCOC)c2ccccc21` (stereo not given), the IC50 was > 66.7 µM (inactive) and the negative logarithm of the Ki (pKi) is less than 4.39.
On the same counts, the results for `CCOc1ccc(C2C(C(=O)c3ccco3)=C(O)C(=O)N2Cc2cccnc2)cc1` (stereo not given) are > 66.7 µM (inactive) and less than 4.39.
Regarding `CCOC(=O)c1c(C)[nH]c(C=Nc2ccccc2)c1O`, the negative-log Ki (pKi) was less than 4.39.
Same read-out and setting: next, `CCC(NC(=O)Nc1cc(OC)c(OC)c(OC)c1)(C(F)(F)F)C(F)(F)F`: less than 4.39; `Cc1nc2c(-c3ccc(F)cc3)c(C)nn2c(C)c1CCC(=O)NC(C)CCc1ccco1` (stereo not given): less than 4.39.
As for `COC(=O)c1ccc(C2/C(=C(/O)c3ccc(OC)cc3)C(=O)C(=O)N2Cc2ccco2)cc1` (stereo not given), the IC50 was > 66.7 µM (inactive) and the pKi was less than 4.39.
The compound `O=C(O)CCCNc1cc(N2CCC3(CC2)OCCO3)c2noc3c2c1C(=O)c1ccccc1-3` had a pKi of 5.18.
In turn, `COc1ccc(Cl)cc1-n1c(=S)sc2c(=O)[nH]c(SCC(=O)NCC3CCCO3)nc21` (stereo not given) gave a pKi of less than 4.39.
For the compound `COCCCN1C(=O)C(O)=C(C(=O)c2ccco2)C1c1ccccc1` (stereo not given), the IC50 was > 66.7 µM (inactive) and the pKi is less than 4.39.
`CCC(SC1=Nc2ccccc2C2=NC(CC(C)C)C(=O)N12)C(=O)Nc1ccc2c(c1)OCO2` (stereo not given) showed a pKi of less than 4.39.
Same read-out and setting: next, `OCc1nc2ccccc2n1CC(O)Cn1ccc2ccccc21` (stereo not given): less than 4.39.
Same read-out and setting: next, `O=C(NCC1CCCO1)c1ccc(NC(=O)C2CCCCC2C(=O)O)cc1` (stereo not given): less than 4.39.
Take `CC1=C(C(=O)OC(C)C)[C@]2(C(=O)N(CC(N)=O)c3ccccc32)C(C#N)=C(N)O1`: the IC50 was > 66.7 µM (inactive) and the negative logarithm of the Ki (pKi) is less than 4.39.
On the same counts, the results for `COCCCN1C(=O)C(=O)/C(=C(/O)c2ccccc2)C1c1ccc2c(c1)OCO2` (stereo not given) are > 66.7 µM (inactive) and less than 4.39.
Turning to `COc1ccc2c(=O)c(N3C(=O)c4ccccc4C3=O)c(C)oc2c1`, the pKi is less than 4.39.
`COc1ccccc1C1/C(=C(/O)c2ccccc2)C(=O)C(=O)N1CCO` (stereo not given): the IC50 is > 66.7 µM (inactive) and the pKi was less than 4.39.
`COc1ccc2c(=O)c(-c3cnn(-c4ccccc4)c3)c(C)oc2c1`: the pKi is less than 4.39.
In the case of `CC(C)(C)CC(=O)Nc1ccc(Nc2ccccc2)cc1`, the pKi was less than 4.39.
Same read-out and setting: in the case of `CCCCn1c(NC(=O)CC)c(C#N)c2nc3ccccc3nc21` it was less than 4.39; in that of `COc1ccc(-c2cn3cccnc3n2)cc1NC(=O)CC(C)C`, 4.57.
